According to paper PMC9230623, “Design, Synthesis, In Vitro Biological Activity Evaluation and Stabilized Nanostructured Lipid Carrier Formulation of Newly Synthesized Schiff Bases-Based TMP Moieties” (Pharmaceuticals, 2022):
Read-outs that look alike come from different tables or passages of the source.

Assays:
[1] = tested on: MDA-MB-231 breast cancer cell line; assay: Cytotoxic assay against MDA-MB-231 breast cancer cell line; format: cell-based; details: Homo sapiens
Method: The newly prepared Schiff bases 2–5g were screened for their in vitro cytotoxic activity against the MDA-MB-231 breast cancer cell line taking CA-4 as a reference drug. […] In addition, further structure extension to give N-aryl hydrazinyl molecules 4a–5g produced compounds with considerable cytotoxic activity, which may give an indication that the aryl ring is important for cytotoxic activity. […]
Cytotoxic activity of the prepared schiff bases against MDA-MB-231 breast cell Line was determined according previously reported methods. (See Supplementary Materials—Appendix SB).

[2] = tested on: normal breast cell line MCF-10A; assay: Cytotoxic assay against normal breast cell line MCF-10A; format: cell-based; details: Homo sapiens, read-out: IC50 Value (μM) MCF-10A
[3] = MDA-MB-231, mean of three independent replicates ± SE, read-out: IC50 Value (μM) MDA-MB-231

| SMILES | melting point [°C] | IC50 ([1]; MDA-MB-231, read-out: IC50 Value (μM) MDA-MB-231) [µM] | IC50 [2] [µM] | IC50 [1, 3] [µM] |
| --- | --- | --- | --- | --- |
| COc1ccc(/C=C\c2cc(OC)c(OC)c(OC)c2)cc1O [CA-4, combretastatin A-4, reference compound] | – | 0.54 ± 0.04 | 8.86 ± 0.67 | – |
| COc1cc(/C=C(\NC(=O)c2cc(OC)c(OC)c(OC)c2)C(=O)N/N=C/c2cc(OC)c(OC)c(OC)c2)cc(OC)c1OC [Compound 4l, 3,4,5-Trimethoxy-N-((Z)-3-oxo-3-((E)-2-(3,4,5-trimethoxybenzylidene)hydrazinyl)-1-(3,4,5-trimethoxyphenyl)prop-1-en-2-yl)benzamide] | – | – | – | 7.3 ± 0.64 |
| COc1cc(/C=N/NC(=O)/C(=C/c2cc(OC)c(OC)c(OC)c2)NC(=O)c2cc(OC)c(OC)c(OC)c2)cc(OC)c1 [Compound 4k, N-((Z)-3-((E)-2-(3,5-Dimethoxybenzylidene)hydrazinyl)-3-oxo-1-(3,4,5-trimethoxyphenyl)prop-1-en-2-yl)-3,4,5-trimethoxybenzamide] | 214 to 216 | – | – | 4.8 ± 0.17 |
| COc1cc(/C=N/NC(=O)/C(=C/c2cc(OC)c(OC)c(OC)c2)NC(=O)c2cc(OC)c(OC)c(OC)c2)ccc1O [Compound 4j, N-((Z)-3-((E)-2-(4-Hydroxy-3-methoxybenzylidene)hydrazinyl)-3-oxo-1-(3,4,5-trimethoxyphenyl)prop-1-en-2-yl)-3,4,5-trimethoxybenzamide] | 226 to 228 | – | – | 2.84 ± 0.18 |
| C/C=N/NC(=O)/C(=C/c1cc(OC)c(OC)c(OC)c1)NC(=O)c1cc(OC)c(OC)c(OC)c1 [Compound 2, N-((Z)-3-((E)-2-Ethylidenehydrazinyl)-3-oxo-1-(3,4,5-trimethoxyphenyl)prop-1-en-2-yl)-3,4,5-trimethoxybenzamide] | 224 to 226 | – | – | 31.6 ± 1.07 |
| COc1cc(/C=C(\NC(=O)c2cc(OC)c(OC)c(OC)c2)C(=O)N/N=C/c2ccc(Cl)cc2)cc(OC)c1OC [Compound 4b, N-((Z)-3-((E)-2-(4-Chlorobenzylidene)hydrazinyl)-3-oxo-1-(3,4,5-trimethoxyphenyl)prop-1-en-2-yl)-3,4,5-trimethoxybenzamide] | 233 to 235 | – | – | 16.1 ± 0.83 |
| COc1cc(/C=C(\NC(=O)c2cc(OC)c(OC)c(OC)c2)C(=O)N/N=C/c2ccco2)cc(OC)c1OC [Compound 3, N-((Z)-3-((E)-2-(Furan-2-ylmethylene)hydrazinyl)-3-oxo-1-(3,4,5-trimethoxyphenyl)prop-1-en-2-yl)-3,4,5-trimethoxybenzamide] | 212 to 214 | – | – | 6.08 ± 0.42 |
| COc1cc(/C=C(\NC(=O)c2cc(OC)c(OC)c(OC)c2)C(=O)N/N=C/c2ccccc2O)cc(OC)c1OC [Compound 4d, N-((Z)-3-((E)-2-(2-Hydroxybenzylidene)hydrazinyl)-3-oxo-1-(3,4,5-trimethoxyphenyl)prop-1-en-2-yl)-3,4,5-trimethoxybenzamide] | 220 to 222 | – | – | 5.98 ± 0.28 |
| COc1cc(/C=C(\NC(=O)c2cc(OC)c(OC)c(OC)c2)C(=O)N/N=C/c2ccc(F)cc2)cc(OC)c1OC [Compound 4a, N-((Z)-3-((E)-2-(4-Fluorobenzylidene)hydrazinyl)-3-oxo-1-(3,4,5-trimethoxyphenyl)prop-1-en-2-yl)-3,4,5-trimethoxybenzamide] | 201 to 203 | – | – | 23.7 ± 1.13 |
| COc1cc(/C=C(\NC(=O)c2cc(OC)c(OC)c(OC)c2)C(=O)N/N=C/c2ccc(C)cc2)cc(OC)c1OC [Compound 4f, 3,4,5-Trimethoxy-N-((Z)-3-((E)-2-(4-methylbenzylidene)hydrazinyl)-3-oxo-1-(3,4,5-trimethoxyphenyl)prop-1-en-2-yl)benzamide] | 208 to 210 | – | – | 4.52 ± 0.36 |
| COc1cc(/C=C(\NC(=O)c2cc(OC)c(OC)c(OC)c2)C(=O)N/N=C/c2ccc(N(C)C)cc2)cc(OC)c1OC [Compound 4i, N-((Z)-3-((E)-2-(4-(Dimethylamino)benzylidene)hydrazinyl)-3-oxo-1-(3,4,5-trimethoxyphenyl)prop-1-en-2-yl)-3,4,5-trimethoxybenzamide] | 243 to 245 | – | – | 3.46 ± 0.51 |
| COc1cc(/C=C(\NC(=O)c2cc(OC)c(OC)c(OC)c2)C(=O)N/N=C/c2ccc(O)cc2)cc(OC)c1OC [Compound 4e, N-((Z)-3-((E)-2-(4-Hydroxybenzylidene)hydrazinyl)-3-oxo-1-(3,4,5-trimethoxyphenyl)prop-1-en-2-yl)-3,4,5-trimethoxybenzamide] | – | – | – | 7.1 ± 1.02 |
| COc1cc(/C=C(\NC(=O)c2cc(OC)c(OC)c(OC)c2)C(=O)N/N=C/c2ccccc2[N+](=O)[O-])cc(OC)c1OC [Compound 4c, 3,4,5-Trimethoxy-N-((Z)-3-((E)-2-(2-nitrobenzylidene)hydrazinyl)-3-oxo-1-(3,4,5-trimethoxyphenyl)prop-1-en-2-yl)benzamide] | 239 to 241 | – | – | 38.8 ± 0.93 |
| COc1ccc(/C=N/NC(=O)/C(=C/c2cc(OC)c(OC)c(OC)c2)NC(=O)c2cc(OC)c(OC)c(OC)c2)cc1 [Compound 4g, 3,4,5-Trimethoxy-N-((Z)-3-((E)-2-(4-methoxybenzylidene)hydrazinyl)-3-oxo-1-(3,4,5-trimethoxyphenyl)prop-1-en-2-yl)benzamide] | 217 to 219 | – | – | 3.43 ± 0.22 |

The next lines start with results.

| melting point [°C] | SMILES | IC50 ([1]; MDA-MB-231, read-out: IC50 Value (μM) MDA-MB-231) [µM] | IC50 [2] [µM] | IC50 [1, 3] [µM] |
| --- | --- | --- | --- | --- |
| 241 to 243 | COc1ccc(/C(C)=N/NC(=O)/C(=C/c2cc(OC)c(OC)c(OC)c2)NC(=O)c2cc(OC)c(OC)c(OC)c2)cc1 [Compound 5e, 3,4,5-Trimethoxy-N-((Z)-3-((E)-2-(1-(4-methoxyphenyl)ethylidene)hydrazinyl)-3-oxo-1-(3,4,5-trimethoxyphenyl)prop-1-en-2-yl)benzamide] | – | – | 9.52 ± 1.18 |
| 258 to 260 | COc1cc(/C=C(\NC(=O)c2cc(OC)c(OC)c(OC)c2)C(=O)N/N=C(\C)c2ccc(O)cc2)cc(OC)c1OC [Compound 5d, N-((Z)-3-((E)-2-(1-(4-Hydroxyphenyl)ethylidene)hydrazinyl)-3-oxo-1-(3,4,5-trimethoxyphenyl)prop-1-en-2-yl)-3,4,5-trimethoxybenzamide] | – | – | 1.98 ± 0.19 |
| 244 to 246 | COc1cc(/C=C(\NC(=O)c2cc(OC)c(OC)c(OC)c2)C(=O)N/N=C(\C)c2ccc(Br)cc2)cc(OC)c1OC [Compound 5c, N-((Z)-3-((E)-2-(1-(4-Bromophenyl)ethylidene)hydrazinyl)-3-oxo-1-(3,4,5-trimethoxyphenyl)prop-1-en-2-yl)-3,4,5-trimethoxybenzamide] | – | – | 20.7 ± 1.84 |
| 249 to 251 | COc1cc(/C=C(\NC(=O)c2cc(OC)c(OC)c(OC)c2)C(=O)N/N=C(\C)c2ccc(Cl)cc2)cc(OC)c1OC [Compound 5b, N-((Z)-3-((E)-2-(1-(4-Chlorophenyl)ethylidene)hydrazinyl)-3-oxo-1-(3,4,5-trimethoxyphenyl)prop-1-en-2-yl)-3,4,5-trimethoxybenzamide] | – | – | 14 ± 1.19 |
| 234 to 236 | COc1ccc(/C(C)=N/NC(=O)/C(=C/c2cc(OC)c(OC)c(OC)c2)NC(=O)c2cc(OC)c(OC)c(OC)c2)cc1OC [Compound 5f, N-((Z)-3-((E)-2-(1-(3,4-Dimethoxyphenyl)ethylidene)hydrazinyl)-3-oxo-1-(3,4,5-trimethoxyphenyl)prop-1-en-2-yl)-3,4,5-trimethoxybenzamide] | – | – | 8.34 ± 1.22 |
| 260 to 262 | COc1cc(/C=C(\NC(=O)c2cc(OC)c(OC)c(OC)c2)C(=O)N/N=C(\C)c2ccccc2)cc(OC)c1OC [Compound 5a, 3,4,5-Trimethoxy-N-((Z)-3-oxo-3-((E)-2-(1-phenylethylidene)hydrazinyl)-1-(3,4,5-trimethoxyphenyl)prop-1-en-2-yl)benzamide] | – | – | 20.2 ± 0.89 |
| 211 to 213 | COc1cc(/C=C(\NC(=O)c2cc(OC)c(OC)c(OC)c2)C(=O)N/N=C(\C)c2cc(OC)c(OC)c(OC)c2)cc(OC)c1OC [Compound 5g, 3,4,5-Trimethoxy-N-((Z)-3-oxo-1-(3,4,5-trimethoxyphenyl)-3-((E)-2-(1-(3,4,5-trimethoxyphenyl)ethylidene)hydrazinyl)prop-1-en-2-yl)benzamide] | – | – | 3.39 ± 0.26 |
